From ChEMBL document CHEMBL1687760, “Secondary integrase resistance mutations found in HIV-1 minority quasispecies in integrase therapy-naive patients have little or no effect on susceptibility to integrase inhibitors” (Antimicrob Agents Chemother, 2010)

Columns and labels:
Assay type in all cases: functional
[1] = test system: Human immunodeficiency virus 1; test: Antiviral activity against Human immunodeficiency virus 1 3B harboring integrase T97A mutant infected in human MT4 cells assessed as inhibition of virus induced cytopathic effect relative to wild type HIV1
[2] = test system: Human immunodeficiency virus 1; test: Antiviral activity against Human immunodeficiency virus 1 3B harboring integrase V165I mutant infected in human MT4 cells assessed as inhibition of virus induced cytopathic effect relative to wild type HIV1
[3] = test system: Human immunodeficiency virus 1; test: Antiviral activity against Human immunodeficiency virus 1 clone 16 harboring integrase E11D, S17T, L45V, M50T, I72V, L74I, K111T, T125A relative to wild type HIV1
[4] = test system: Human immunodeficiency virus 1; test: Antiviral activity against Human immunodeficiency virus 1 clone 15_7 harboring integrase T97A mutant and T97A, Y143R site-directed mutation relative to wild type HIV1
[5] = test system: Human immunodeficiency virus 1; test: Antiviral activity against Human immunodeficiency virus 1 clone 13 harboring integrase R20K, A23V, T124N, G193E, V201I, T206S, I268V, I220V mutant gene relative to wild type HIV1
[6] = test system: Human immunodeficiency virus 1; test: Antiviral activity against Human immunodeficiency virus 1 clone 15_7 harboring integrase E11D, S17T, L45V, M50T, I72V, L74I, T97A, K111T, S119G, T125A infected in human MT4 cells assessed as inhibition of virus induced cytopathic effect relative to wild type HIV1
[7] = test system: Human immunodeficiency virus 1; test: Antiviral activity against Human immunodeficiency virus 1 3B harboring integrase G140S mutant infected in human MT4 cells assessed as inhibition of virus induced cytopathic effect relative to wild type HIV1
[8] = test system: Human immunodeficiency virus 1; test: Antiviral activity against Human immunodeficiency virus 1 3B harboring integrase M154I mutant infected in human MT4 cells assessed as inhibition of virus induced cytopathic effect relative to wild type HIV1
[9] = test system: Human immunodeficiency virus 1; test: Antiviral activity against Human immunodeficiency virus 1 3B harboring integrase K156N mutant infected in human MT4 cells assessed as inhibition of virus induced cytopathic effect relative to wild type HIV1
[10] = test system: Human immunodeficiency virus 1; test: Antiviral activity against Human immunodeficiency virus 1 clone 9 harboring integrase S17N, I84I, T124N, T125A, M154I, A175T, S195C mutant gene relative to wild type HIV1
[11] = test system: Human immunodeficiency virus 1; test: Antiviral activity against Human immunodeficiency virus 1 clone 14 harboring integrase S17N, T124N, T125A, M154I, S195C, V201I mutant gene relative to wild type HIV1
[12] = test system: Human immunodeficiency virus 1; test: Antiviral activity against Human immunodeficiency virus 1 clone 7 harboring integrase E11D, S17T, L45V, M50T, I72V, L74I, K111T, T125A relative to wild type HIV1
[13] = test system: Human immunodeficiency virus 1; test: Antiviral activity against Human immunodeficiency virus 1 3B harboring integrase L74M mutant infected in human MT4 cells assessed as inhibition of virus induced cytopathic effect relative to wild type HIV1
[14] = test system: Human immunodeficiency virus 1; test: Antiviral activity against Human immunodeficiency virus 1 clone 15_12 harboring integrase Y143R site-directed mutation relative to wild type HIV1
[15] = test system: Human immunodeficiency virus 1; test: Antiviral activity against Human immunodeficiency virus 1 clone 15_19 harboring integrase T97A mutant and T97A, Y143R site-directed mutation relative to wild type HIV1
[16] = test system: Human immunodeficiency virus 1; test: Antiviral activity against Human immunodeficiency virus 1 clone 17 harboring integrase R20K, A23V, T124N,A129T, I141V, I62T, G193E, V201I, T206S, I220V, D279G mutant gene relative to wild type HIV1
[17] = test system: Human immunodeficiency virus 1; test: Antiviral activity against Human immunodeficiency virus 1 3B harboring integrase I72V mutant infected in human MT4 cells assessed as inhibition of virus induced cytopathic effect relative to wild type HIV1
[18] = test system: Human immunodeficiency virus 1; test: Antiviral activity against Human immunodeficiency virus 1 clone 12 harboring integrase E11D, S17T, L45V, M50T, I72V, L74I, K111T, S119G, T125A relative to wild type HIV1
[19] = test system: Human immunodeficiency virus 1; test: Antiviral activity against Human immunodeficiency virus 1 clone 16 harboring integrase S17N, T124N, T125A, M154I, S195C, V201I mutant gene relative to wild type HIV1
[20] = test system: Human immunodeficiency virus 1; test: Antiviral activity against Human immunodeficiency virus 1 3B harboring integrase E92G mutant infected in human MT4 cells assessed as inhibition of virus induced cytopathic effect relative to wild type HIV1
[21] = test system: Human immunodeficiency virus 1; test: Antiviral activity against Human immunodeficiency virus 1 clone 1 harboring integrase E11D, S17T, L45V, M50I, M50T, I72V, L74I, K111T, S119G, T125A relative to wild type HIV1
[22] = test system: Human immunodeficiency virus 1; test: Antiviral activity against Human immunodeficiency virus 1 clone 19 harboring integrase E11D, S17T, L45V, M50T, I72V, L74I, T97A, K111T, S119G, T125A relative to wild type HIV1
[23] = test system: Human immunodeficiency virus 1; test: Antiviral activity against Human immunodeficiency virus 1 clone 15_19 harboring integrase E11D, S17T, L45V, M50T, I72V, L74I, T97A, K111T, S119G, T125A infected in human MT4 cells assessed as inhibition of virus induced cytopathic effect relative to wild type HIV1
[24] = test system: Human immunodeficiency virus 1; test: Antiviral activity against Human immunodeficiency virus 1 clone 4 harboring integrase R20K, A23V, T124N, I141V, G193E, V201I, T206S, I220V, D279G mutant gene relative to wild type HIV1
[25] = test system: Human immunodeficiency virus 1; test: Antiviral activity against Human immunodeficiency virus 1 clone 2 harboring integrase R20K, A23V, E92G, T124N, I141V, G193E, V201I, T206S, I220V, D279G mutant gene relative to wild type HIV1
[26] = test system: Human immunodeficiency virus 1; test: Antiviral activity against Human immunodeficiency virus 1 clone 3 harboring integrase R20K, A23V, T124N, I141V, G193E, V201I, T206S, I220V, M275Vmutant gene relative to wild type HIV1
[27] = test system: Human immunodeficiency virus 1; test: Antiviral activity against Human immunodeficiency virus 1 3B harboring integrase T66I mutant infected in human MT4 cells assessed as inhibition of virus induced cytopathic effect relative to wild type HIV1
[28] = test system: Human immunodeficiency virus 1; test: Antiviral activity against Human immunodeficiency virus 1 clone 18 harboring integrase S17N, I84I, T124N, T125A, M154I, S195C, V201I, S230G mutant gene relative to wild type HIV1
[29] = test system: Human immunodeficiency virus 1; test: Antiviral activity against Human immunodeficiency virus 1 clone 15 harboring integrase S17N, I84I, T124N, T125A, M154I, S195C mutant gene relative to wild type HIV1
[30] = test system: Human immunodeficiency virus 1; test: Antiviral activity against Human immunodeficiency virus 1 clone 3 harboring integrase S17N, I84I, T124N, T125A, M154I, S195C mutant gene relative to wild type HIV1
[31] = test system: Human immunodeficiency virus 1; test: Antiviral activity against Human immunodeficiency virus 1 clone 13 harboring integrase S17N, T124N, T125A, G140S, M154I, S195C mutant gene relative to wild type HIV1
[32] = test system: Human immunodeficiency virus 1; test: Antiviral activity against Human immunodeficiency virus 1 clone 2 harboring integrase S17N, I84I, T124N, T125A, M154I, E157K, S195C mutant gene relative to wild type HIV1

COc1cc2c(cc1Cc1cccc(Cl)c1F)c(=O)c(C(=O)O)cn2[C@H](CO)C(C)C [ELVITEGRAVIR]
fold change (FC) [1]: 2.6
fold change (FC) [2]: 0.8
fold change (FC) [3]: 0.5
fold change (FC) [4]: 14.6
fold change (FC) [5]: 0.8
fold change (FC) [6]: 2.7
fold change (FC) [7]: 5.6
fold change (FC) [8]: 1
fold change (FC) [9]: 0.7
fold change (FC) [10]: 1.3
fold change (FC) [11]: 1.3
fold change (FC) [12]: 2.7
fold change (FC) [13]: 0.7
fold change (FC) [14]: 4.2
fold change (FC) [15]: 9.4
fold change (FC) [16]: 0.3
fold change (FC) [17]: 0.8
fold change (FC) [18]: 1
fold change (FC) [19]: 1
fold change (FC) [20]: 13
fold change (FC) [21]: 1.4
fold change (FC) [22]: 2.5
fold change (FC) [23]: 2.5
fold change (FC) [24]: 0.7
fold change (FC) [25]: 13
fold change (FC) [26]: 0.7
fold change (FC) [27]: 10.5
fold change (FC) [28]: 0.8
fold change (FC) [29]: 0.6
fold change (FC) [30]: 0.6
fold change (FC) [31]: 5.6
fold change (FC) [32]: 1.1

Cc1nnc(C(=O)NC(C)(C)c2nc(C(=O)NCc3ccc(F)cc3)c(O)c(=O)n2C)o1 [RALTEGRAVIR]
fold change (FC) [1]: 1.6
fold change (FC) [2]: 0.7
fold change (FC) [3]: 1.2
fold change (FC) [4]: 91.6
fold change (FC) [5]: 0.8
fold change (FC) [6]: 1.5
fold change (FC) [7]: 2.4
fold change (FC) [8]: 0.8
fold change (FC) [9]: 0.4
fold change (FC) [10]: 1.1
fold change (FC) [11]: 1.8
fold change (FC) [12]: 1.5
fold change (FC) [13]: 0.9
fold change (FC) [14]: 13.1
fold change (FC) [15]: 88.2
fold change (FC) [16]: 0.3
fold change (FC) [17]: 0.9
fold change (FC) [18]: 1.1
fold change (FC) [19]: 1.3
fold change (FC) [20]: 1.8
fold change (FC) [21]: 1.7
fold change (FC) [22]: 1.7
fold change (FC) [23]: 1.7
fold change (FC) [24]: 0.2
fold change (FC) [25]: 1.8
fold change (FC) [26]: 0.5
fold change (FC) [27]: 0.8
fold change (FC) [28]: 1.3
fold change (FC) [29]: 0.7
fold change (FC) [30]: 0.8
fold change (FC) [31]: 2.4
fold change (FC) [32]: 1.1
